Measured values from patent US4406903A, “Xanthine derivatives useful as antidepressives” (John Wyeth and Brother Limited, priority 1981, dated 1983).
Where a name gives a salt, the structure may show the parent alone.

Experiments:
[1] = tested on: 5-hydroxytryptamine reuptake; experiment: Inhibition of 5-hydroxytryptamine reuptake in rat cortical synaptosomes (Procedure 2); format: biochemical; details: for Selectivity Ratio (5-HT uptake over NA uptake): from IC50 values of NA and 5-HT uptake; for IC50: 10^-7 M 14C-5-hydroxytryptamine, 37° C., 4 min, pH 7.4, read-out: 5-HT Uptake IC50
Description: (§1) Inhibition of 5-hydroxytryptamine and L-noradrenaline reuptake in rat cortical synaptosomes
(§2) "The isolation of nerve endings from brain: An electron microscopic study of cell fragments dervied by homogenisation and centrifugation."
(§3) Test object: Purified rat cortical synaptosomes (P2 B) from 8-10 male albino rats (190-250 g).
Procedure: Rats are stunned and then killed by decapitation. The brain is quickly removed and the cortex excised essentially free of striatum and mid-brain. […] The homogenate of concentration 10% w/v in 0.32 sucrose is centrifuged at an average centrifugal force of 1000×g for 10 minutes and the supernatant is decanted and centrifuged at an average of 10000×g for 20 min to obtain the crude mitochondrial pellet (P2). […] The synaptosomes are then centrifuged in a swing-out rotor at 97 000×g average for 30 min. […] (2 ml/g original tissue). Throughout the procedure, it is essential to maintain the tissue and synaptosomes at […]. Synaptosomes should be used within three hours of preparation. A 100 μl aliquot of this synaptosomal suspension (2.5-3.0 mg protein/ml) is added to the incubation medium (900 μl) which has been preincubated at 37° C. for 5 min. […] All reagents are of `Analar` grade and glass distilled water is used.
The quantity of material prepared per experiment would normally be sufficient to examine the effects of 30 different treatments (e.g. 6 compounds each at 5 concentrations in triplicate). […] The filters are then washed with 2.4 ml incubation medium. The radioactivity retained on the filter is determined by the addition of Instagel (10 ml) (Packard) and subsequent liquid scintillation counting to convert results into dpm. The non-specific binding and passive accumulation of both amines is corrected for by determining uptake in a sodium-free medium. Percentage inhibition of uptake is calculated as [formula] where background dpm is that accumulated in a sodium-free medium.
Assays are run in triplicate, with 2 or 3 control and background determinations inserted randomly. The selectivity ratio is calculated as: [formula]

L-noradrenaline reuptake = experiment: Inhibition of L-noradrenaline reuptake in rat cortical synaptosomes (Procedure 2); format: biochemical; details: 10^-7 M 3H-L-noradrenaline, 37° C., 4 min, pH 7.4, read-out: NA Uptake IC50
Description: as §1
Ref: E. G. Gray and V. P. Whittaker (1962). J. Anat 96, p 79-88.
as §2, §3
Procedure: Rats are stunned and then killed by decapitation. The brain is quickly removed and the cortex excised essentially free of striatum and mid-brain. The tissue is then gently homogenised (10 strokes at 840 rpm) in 0.32 M sucrose. […]
Test compounds may be present in 4 to 6 concentrations depending on previous experience, but normally the range would be 10^-9 M to 10^-6 M for an active compound. The quantity of material prepared per experiment would normally be sufficient to examine the effects of 30 different treatments (e.g. 6 compounds each at 5 concentrations in triplicate). […] The radioactivity retained on the filter is determined by the addition of Instagel (10 ml) (Packard) and subsequent liquid scintillation counting to convert results into dpm. […] Percentage inhibition of uptake is calculated as [formula] where background dpm is that accumulated in a sodium-free medium. […]

[2] = tested on: 5-hydroxytryptamine uptake; experiment: Inhibition of 5-Hydroxytryptamine Uptake in Brain Slices (Procedure 1); format: cell-based, rat; details: for inhibition at 0.1 µM / inhibition at 1 µM / inhibition at 10 µM: rat cerebral cortex slices, 3H 5-hydroxytryptamine 10^-7 M; for Inhibition of 5-hydroxytryptamine uptake, potency ratio compared with imipramine: IC50-based ratio versus imipramine, rat brain slices; for Potency in 5-hydroxytryptamine tests (in words, versus imipramine): qualitative comparison with the standard inhibitor imipramine
Experimental: (§4) Inhibition of 5-Hydroxytryptamine or Noradrenaline Uptake in Brain Slices
Two rates (weighing 170-200 g) are decapitated and the brains rapidly removed and placed in ice-cold Krebs solution. The cerebral cortex on each side of the median line is opened out flat and cut to give two slabs of even thickness. The slabs are weighed and then sliced on a McIlwain tissue chopper. The tissue is sliced twice, the second cutting being at an angle of 45° to the first. The interval of cutting is 0.1 mm. The slices are transferred to a 5 ml conical flask and Krebs solution is added in the proportion 5 ml/g tissue. The slices are dispersed in the solution by sucking up and down in a Pasteur pipette. When a satisfactory suspension is achieved it is pipetted in 50 μl portions into 25 ml conical flasks containing 4.5 ml chilled Krebs solution. An Eppendorf pipette with the tip cut back to about 1 mm diameter is used. The suspension is kept well mixed at this stage so that each portion taken contains the same amount of tissue (~10 mg). The flasks are gassed with 95% O2 /5% CO2 and sealed with aluminium foil. They are then placed in a water bath at 27° for 15 minutes pre-incubation.
Flasks in groups of four are then each treated by an addition in 0.5 ml. to achieve the following concentrations in the medium. […]
______________________________________
GROUP CONCENTRATION (CONCENTRATION)
A 10^-7 M TEST COMPOUND (10^-5 M)
B 10^-7 M IMIPRAMINE (10^-5 M)
C 10^-7 M IMIPRAMINE (10^-6 M)
D 10^-7 M IMIPRAMINE (10^-7 M)
After 20 minutes incubation the slices are filtered off in filter funnels connected to a vacuum line. Each flask in rinsed with 5 ml Krebs which is also poured through the filter funnel followed by a further 5 ml Krebs. For group F the treatment differs in that ^3 H 5-hydroxytryptamine in 0.5 ml is added immediately before filtration. This gives an estimation of the amount of activity retained by the filter from the solution together with the amount of non-specific binding by the tissue.
(§5) The filter papers are placed in scintillation vials and soaked in 4 ml ethanol/methanol (3:1 v/v) for at least 45 minutes before addition of 10 ml liquid scintillator after which the samples are counted in a liquid scintillation counter.
(§6) Uptake inhibition is expressed as follows: [formula] […] In this case a dose response experiment is carried out with the test compound and impramine at concentrations of 10^-5 M, 10^-6 M and 10^-7 M. The % inhibition is again calculated in the same way and the results are plotted as % inhibition against log compound concentration. The molar concentration which inhibits uptake by 50% (IC50) is determined. The potency ratio compared to imipramine is calculated as: [formula]

noradrenaline uptake = experiment: Inhibition of Noradrenaline Uptake in Brain Slices (Procedure 1); format: cell-based, rat; details: 3H-noradrenaline 10^-7 M; active if % inhibition at 10^-6 M is at least that of imipramine at 10^-7 M
Experimental: as §4
Two rates (weighing 170-200 g) are decapitated and the brains rapidly removed and placed in ice-cold Krebs solution. The cerebral cortex on each side of the median line is opened out flat and cut to give two slabs of even thickness. The slabs are weighed and then sliced on a McIlwain tissue chopper. The tissue is sliced twice, the second cutting being at an angle of 45° to the first. The interval of cutting is 0.1 mm. The slices are transferred to a 5 ml conical flask and Krebs solution is added in the proportion 5 ml/g tissue. The slices are dispersed in the solution by sucking up and down in a Pasteur pipette. […]
as §5
as §6, with “compound concentration. […] The potency” for “compound concentration. The molar concentration which inhibits uptake by 50% (IC50) is determined. The potency”, “as: [formula] […]” for “as: [formula]”

| SMILES | Selectivity Ratio (5-HT uptake over NA uptake) ([1]; rat cortical synaptosomes) | IC50 ([1]; rat cortical synaptosomes) | IC50 (L-noradrenaline reuptake) | inhibition at 0.1 µM [2] | inhibition at 1 µM [2] | inhibition at 10 µM [2] | Inhibition of 5-hydroxytryptamine uptake, potency ratio compared with imipramine [2] | Potency in 5-hydroxytryptamine tests (in words, versus imipramine) [2] | Inhibition of noradrenaline uptake (noradrenaline uptake) | Selectivity of action (in words) ([1]; qualitative, 5-HT versus NA uptake) | Inhibition of 5-HT uptake (in words) ([1]; qualitative, rat cortical synaptosomes) |
| --- | --- | --- | --- | --- | --- | --- | --- | --- | --- | --- | --- |
| CN(C)CCCN1c2ccccc2CCc2ccccc21 [imipramine, reference compound] | 0.5 | 100 nM | 50 nM | – | – | – | – | – | – | – | – |
| Cn1c(=O)c2c(ncn2CCCNCCc2c[nH]c3ccccc23)n(C)c1=O [Example 3, N-[3-theophyllin-7-yl)propyl]tryptamine hydrochloride] | – | – | – | 4% | 43% | 77% | 0.8 | about the same order of potency as the standard inhibitor imipramine | INACTIVE | – | – |
| Cn1c(=O)c2c(ncn2CCCNCCc2c[nH]c3ccc(O)cc23)n(C)c1=O [Example 1, 5-hydroxy-N-[3-(theophyllin-7-yl)propyl]tryptamine hydrochloride hemihydrate] | > 167 | 60 nM | > 10000 nM | 44% | 77% | 84% | 4.3 | considerably more potent than imipramine | INACTIVE | very selective in its action | very potent inhibitor of 5-HT uptake |
